Converted amounts (≈) assume the structure as drawn.
Tests used:
[1] = system: H. pylori strains ATCC 43504; parameters: method as in PMID 18780820; conditions: cited from earlier work
[2] = system: H. pylori strain SS1; assay: Anti-H. pylori activity assay, MIC by standard agar dilution method; type: cell-based; conditions: Helicobacter pylori, SS1, 72 h, 3 days, 37°C, microaerobic
Description: (§1) The bacterial growth inhibition activity for Emodin was evaluated by using Paper Discus Method. DMSO and ampicillin paper were used as negative and positive control respectively. The minimum inhibitory concentrations (MIC) values were determined by the standard agar dilution method using Columbia agar supplemented with 10% sheep blood containing two-fold serial dilutions of Emodin. The plates were inoculated with a bacterial suspension (10^8 cfu/ml) in Brain Heart Infusion broth with a multipoint inoculator. Compound-free Columbia agar media were used as controls. Inoculated plates were incubated at 37°C under microaerobic conditions (85% N2, 10% CO2 and 5% O2) and examined after 3 days.
(§2) The inhibition activities of Emodin against H. pylori strains SS1 and ATCC 43504 were assayed according to the standard agar dilution method.

[3] = system: H. pylori strain ATCC 43504; assay: as above; type: cell-based; conditions: Helicobacter pylori, ATCC43504, 72 h, 3 days, 37°C, microaerobic
Description: as §1, §2

[4] = biological target: T1, HpFabZ (Helicobacter pylori, UniProt Q5G940); assay: SPR (Biacore 3000) binding assay of Emodin to immobilized HpFabZ; conditions: 25°C
Description: The binding of Emodin to HpFabZ was analyzed by SPR technology based Biacore 3000 instrument (Biacore AB, Uppsala, Sweden). All the experiments were carried out using HBS-EP (10 mM HEPES pH 7.4, 150 mM NaCl, 3.4 mM EDTA and 0.005% surfactant P20) as running buffer with a constant flow rate of 30 μL/min at 25°C. HpFabZ protein, which was diluted in 10 mM sodium acetate buffer (pH 4.13) to a final concentration of 1.3 μM, was covalently immobilized on the hydrophilic carboxymethylated dextran matrix of the CM5 sensor chip (BIAcore) using standard primary amine coupling procedure. Emodin was dissolved in the running buffer with different concentrations ranging from 0.625 to 20 μM. All data were analyzed by BIAevaluation software, and the sensorgrams were processed by automatic correction for nonspecific bulk refractive index effects. The kinetic analyses of the Emodin/HpFabZ binding were performed based on the 1:1 Langmuir binding fit model according to the procedures described in the software manual.
SPR technology based Biacore 3000 instrument was used to investigate the kinetic feature of Emodin binding to HpFabZ.
The 1:1 Langmuir binding model was used to fit the kinetic parameters regarding the Emodin/HpFabZ binding process, in which the association rate constant (ka) and dissociation rate constant (kd) were fitted simultaneously by rate Equation 1,(1) [drawing 1]
Where, R represents the response unit, C is the concentration of the Emodin, Rmax stands for the maximal response. The equilibrium dissociation constant (KD) was determined by Equation 2.(2) [drawing 2]

[5] = biological target: T1, HpFabZ; assay: HpFabZ enzymatic inhibition assay (spectrophotometric, substrate crotonoyl-CoA); type: biochemical
Description: The expression, purification and enzymatic inhibition assay of HpFabZ enzyme were performed according to the previously published approach with slight modification. The compounds dissolved in 1% DMSO (Dimethyl sulfoxide) were incubated with the enzyme for 2 hours before the assay started. The IC50 value of Emodin was estimated by fitting the inhibition data to a dose-dependent curve using a logistic derivative equation. The inhibition type of Emodin against HpFabZ was determined in the presence of varied inhibitor concentrations. After 2h-incubation, the reaction was started by the addition of crotonoyl-CoA. The Ki value was obtained from Lineweaver-Burk double-reciprocal plots and subsequent secondary plots.
The recombinant HpFabZ enzyme was prepared according to our previously published report. The spectrophotomeric enzyme inhibition assay approach was used for randomly screening HpFabZ inhibitor against our lab in-house natural product library. In addition, to optimize the screening efficiency and creditability, the pH profile of HpFabZ and the potential effects of DMSO on enzymatic activity were investigated [see Additional files 1, 2 and 3]. As shown in Additional file 2: Fig. S1, the pH optimum of HpFabZ was 8.0 and 1% DMSO for dissolving the tested compound had no obvious effect on the enzymatic activity (Additional file 3: Fig. S2.)

[6] = biological target: T1, HpFabZ; assay: ITC based assay of Emodin/HpFabZ binding; conditions: 25°C
Description: ITC experiments were performed on a VP-ITC Microcalorimeter (Microcal, Northampton, MA, USA) at 25°C. HpFabZ was dialysed extensively against 20 mM Tris (pH 8.0), 500 mM NaCl and 1 mM EDTA at 4°C. Appropriate concentration of Emodin was prepared from a 50 mM stock in DMSO, and corresponding amount of DMSO (25%) was added to the protein solution to match the buffer composition. The reference power was set to 15 μCal/sec and the cell contents were stirred continuously at 300 rpm throughout the titrations. After an initial injection of Emodin (3 μL, not used for data fitting), 29 injections (6 μL each) were performed with a 3 min-delay between each injection, and then the heat changes were monitored. Blank titrations of Emodin into buffer were also performed to correct for the heats generated by dilution and mixing. The binding isotherm was fit by the single binding site model using a non-linear least squares method based on Origin (Microcal Software, Northampton, MA, USA).
To inspect the kinetic and thermodynamic characters regarding the inhibition of Emodin against HpFabZ enzyme, ITC technology based assay was performed. […] The ITC titration data in Table 2 has clearly established a 1:1 stoichiometry for HpFabZ-Emodin complex formation. Based on the obtained thermodynamic data (ΔH = -17.77 ± 1.11 kcal/mol, TΔS = -9.12 kcal/mol, ΔG = -8.65 kcal/mol), it was easily concluded that the enthalpy contributed favorably to the binding free energy in Emodin/HpFabZ interaction, indicating a significant enthalpy driven binding of Emodin to HpFabZ.

[7] = system: H. pylori strains SS1; parameters: method as in PMID 18565285; conditions: cited from earlier work

T1 sequence (Q5G940 entry or part of it): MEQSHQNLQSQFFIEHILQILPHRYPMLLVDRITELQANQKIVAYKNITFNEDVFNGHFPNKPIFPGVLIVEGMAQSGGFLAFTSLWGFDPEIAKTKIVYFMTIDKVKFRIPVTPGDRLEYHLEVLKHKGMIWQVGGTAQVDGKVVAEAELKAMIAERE

Which “MIC, H. pylori strains ATCC 43504” value [1] does the source give for COc1cc(O)c2c(c1)O[C@H](c1ccc(O)cc1)CC2=O [(S)-Sakuranetin] here?
The value was 25 µg/mL (≈ 87.3 µM).

With O=c1cc(-c2ccc(O)cc2)oc2cc(O)cc(O)c12 [Apigenin] as the compound, how does the “MIC, H. pylori strains ATCC 43504” value [1] read?
The value was 25 µg/mL (≈ 92.5 µM).

Which results are given for Cc1cc(O)c2c(c1)C(=O)c1cc(O)cc(O)c1C2=O [Emodin, 3-methyl-1,6,8-trihydroxyanthraquinone]?
MIC [2]: 5 µg/mL (≈ 18.5 µM); MIC [3]: 10 µg/mL (≈ 37 µM); Rmax, maximum analyte binding capacity ([4]; 1:1 Langmuir fit): 42.3 ± 1.51 RU; kd, dissociation rate constant ([4]; 1:1 Langmuir fit): 0.193 ± 0.0061 per s; Kd ([4]; HpFabZ immobilized on CM5 chip, read-out: KD, equilibrium dissociation constant determined by SPR): 4.59 µM; IC50 ([5]; 2 h preincubation with enzyme, 1% DMSO): 9.7 ± 1 µM; Ki ([5]; Lineweaver-Burk and secondary plots, substrate crotonoyl-CoA, read-out: Ki, HpFabZ enzyme inhibition): 1.9 ± 0.3 µM; Inhibition type ([5]; versus substrate crotonoyl-CoA, double reciprocal plots): Competitive; TΔS [6]: -9.12 kcal/mol; ΔG [6]: -8.65 kcal/mol; ΔH [6]: -17.77 ± 1.11 kcal/mol; Kd ([6]; read-out: KD', equilibrium dissociation constant determined by ITC): 0.45 µM; N, stoichiometry of Emodin-HpFabZ complex ([6]; single binding site model): 1.07 ± 0.035

Which “MIC, H. pylori strains SS1” value [7] does the source give for O=C1C=CC(=O)c2c(O)cccc21 [Juglone] here?
The value was 5 µg/mL (≈ 28.7 µM).

Which “MIC, H. pylori strains ATCC 43504” value [1] does the source give for O=c1c(O)c(-c2ccc(O)c(O)c2)oc2cc(O)cc(O)c12 [Quercetin] here?
The value was 100 µg/mL (≈ 331 µM).

— PMC2692856, “Emodin targets the β-hydroxyacyl-acyl carrier protein dehydratase from Helicobacter pylori: enzymatic inhibition assay with crystal structural and thermodynamic characterization” (BMC Microbiology, 2009)
